Measurements reported in patent US8148391B2 (Cephalon, Inc., priority 2006, dated 2012).
Read-outs that look alike come from different tables or passages of the source.

Tests used:
[1] = molecular target: T1, baculovirus-expressed ALK (Homo sapiens, UniProt Q9UM73); experiment: ALK Kinase Assay (ELISA-type, time-resolved fluorescence); format: biochemical; conditions: 1 μM ATP (Km level)
T1 construct: host or cells: baculovirus expression system
Outline: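 Plates coated with phospholipase C-γ substrate (10 μg/mL in TBS); reaction started with 30 ng/ml ALK and run 15 min at 37° C. Phosphorylated substrate detected with Eu-N1-labeled PT66 antibody. IC50 from sigmoidal variable-slope fit of percent inhibition vs log concentration.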

[2] = molecular target: T2, c-Met (cytoplasmic domain) (Homo sapiens, UniProt P08581); experiment: c-Met Kinase Assay (same methods as for ALK, with modifications); format: biochemical; conditions: 1 μM ATP (Km level)
T2 construct: 10 ng/mL c-Met (cytoplasmic domain, Invitrogen Corporation #PV3143); purchased Invitrogen Corporation PV3143
Outline: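 Europium-labeled PT66 antibody (Eu-N1) detects substrate phosphorylation on wells coated with phospholipase C-γ at 10 μg/mL. The kinase, the cytoplasmic domain of c-Met at 10 ng/mL, starts the reaction, which proceeds 15 minutes at 37° C.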

[3] = read-out: ALK Activity (ALK Kinase Inhibition, IC50)
[4] = read-out: cMet Activity (c-Met Kinase Inhibition, IC50)
[5] = 30 ng/ml ALK, 37° C., 15 minutes, read-out: ALK Activity (ALK kinase inhibition, IC50 class)
[6] = 10 ng/mL c-Met, read-out: cMet Activity (c-Met kinase inhibition, IC50 class)

T2 sequence (P08581 956-1390 limits assumed): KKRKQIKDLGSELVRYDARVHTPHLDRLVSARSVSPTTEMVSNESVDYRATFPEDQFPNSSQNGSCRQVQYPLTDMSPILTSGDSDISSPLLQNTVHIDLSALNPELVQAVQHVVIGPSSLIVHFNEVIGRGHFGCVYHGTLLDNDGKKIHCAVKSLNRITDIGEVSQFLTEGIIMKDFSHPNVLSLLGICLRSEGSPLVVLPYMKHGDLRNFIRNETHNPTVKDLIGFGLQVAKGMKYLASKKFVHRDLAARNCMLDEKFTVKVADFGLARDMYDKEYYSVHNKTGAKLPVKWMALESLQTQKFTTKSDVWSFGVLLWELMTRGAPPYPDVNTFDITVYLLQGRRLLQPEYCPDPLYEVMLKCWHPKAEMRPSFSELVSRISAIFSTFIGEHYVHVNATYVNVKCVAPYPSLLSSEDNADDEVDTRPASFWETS
T1 sequence (Q9UM73 19-1620): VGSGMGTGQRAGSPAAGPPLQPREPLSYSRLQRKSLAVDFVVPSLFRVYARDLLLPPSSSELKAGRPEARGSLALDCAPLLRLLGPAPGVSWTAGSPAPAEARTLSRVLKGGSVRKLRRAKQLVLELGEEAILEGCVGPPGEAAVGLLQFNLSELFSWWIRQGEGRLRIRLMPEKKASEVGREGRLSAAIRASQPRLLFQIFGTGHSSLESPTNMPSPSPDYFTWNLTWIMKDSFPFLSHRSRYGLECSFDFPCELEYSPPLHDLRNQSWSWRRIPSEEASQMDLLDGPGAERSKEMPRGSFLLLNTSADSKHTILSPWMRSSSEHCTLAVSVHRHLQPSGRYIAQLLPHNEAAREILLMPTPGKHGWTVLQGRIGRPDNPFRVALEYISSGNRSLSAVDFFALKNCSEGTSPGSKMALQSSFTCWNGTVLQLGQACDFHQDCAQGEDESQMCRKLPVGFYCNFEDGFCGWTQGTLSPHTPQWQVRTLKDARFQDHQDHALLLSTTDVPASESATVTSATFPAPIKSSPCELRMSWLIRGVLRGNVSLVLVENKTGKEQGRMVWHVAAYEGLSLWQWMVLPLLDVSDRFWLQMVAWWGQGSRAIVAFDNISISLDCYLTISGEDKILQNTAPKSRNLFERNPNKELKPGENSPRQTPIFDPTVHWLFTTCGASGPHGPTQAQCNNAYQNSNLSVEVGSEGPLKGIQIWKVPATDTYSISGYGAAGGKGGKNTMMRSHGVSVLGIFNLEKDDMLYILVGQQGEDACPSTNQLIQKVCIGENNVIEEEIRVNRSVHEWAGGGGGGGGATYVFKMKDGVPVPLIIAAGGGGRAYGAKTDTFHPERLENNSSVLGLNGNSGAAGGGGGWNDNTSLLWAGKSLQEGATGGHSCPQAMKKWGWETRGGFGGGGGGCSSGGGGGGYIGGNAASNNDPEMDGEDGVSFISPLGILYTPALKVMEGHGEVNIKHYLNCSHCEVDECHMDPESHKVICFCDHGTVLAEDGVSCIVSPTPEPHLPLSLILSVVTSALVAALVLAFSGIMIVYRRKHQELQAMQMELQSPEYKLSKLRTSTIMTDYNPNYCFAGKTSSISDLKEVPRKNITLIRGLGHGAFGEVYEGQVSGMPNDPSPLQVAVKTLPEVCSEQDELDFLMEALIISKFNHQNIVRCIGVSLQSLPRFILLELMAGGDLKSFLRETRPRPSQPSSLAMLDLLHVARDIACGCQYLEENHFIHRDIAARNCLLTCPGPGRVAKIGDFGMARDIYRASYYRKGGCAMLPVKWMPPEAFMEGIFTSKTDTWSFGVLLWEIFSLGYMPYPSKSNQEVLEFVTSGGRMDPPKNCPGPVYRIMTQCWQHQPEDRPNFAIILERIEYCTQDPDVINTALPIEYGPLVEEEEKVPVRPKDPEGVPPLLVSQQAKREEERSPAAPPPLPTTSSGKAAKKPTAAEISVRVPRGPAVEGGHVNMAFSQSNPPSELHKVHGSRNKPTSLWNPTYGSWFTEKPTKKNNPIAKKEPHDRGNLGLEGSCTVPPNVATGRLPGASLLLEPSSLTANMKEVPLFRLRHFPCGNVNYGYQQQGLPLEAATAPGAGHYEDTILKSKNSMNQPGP

Row | SMILES | IC50 [1, 3] [nM] | IC50 [2, 4] [nM] | IC50 [1, 5] [nM] | IC50 [2, 6] [nM]
1 | Cc1cccc(-c2ccccc2Nc2nc(Nc3ccc4c(c3)C(C)(C)CCC(=O)N4)ncc2Cl)n1 [Example 1008, 7-{5-Chloro-4-[2-(6-methyl-pyridin-2-yl)-phenylamino]-pyrimidin-2-ylamino}-5,5-dimethyl-1,3,4,5-tetrahydro-benzo[b]azepin-2-one] | < 100 | 1000 to 10000 | – | –
2 | COCCN1CCc2ccc(Nc3ncc(Cl)c(Nc4ccccc4-c4cccc(C)n4)n3)cc2CC1 [Example 1009, 5-Chloro-N*2*-[3-(2-methoxy-ethyl)-2,3,4,5-tetrahydro-1H-benzo[d]azepin-7-yl]-N*4*-[2-(6-methyl-pyridin-2-yl)-phenyl]-pyrimidine-2,4-diamine] | < 100 | 100 to 1000 | – | –
3 | CC1(C)CCC(=O)Nc2ccc(Nc3ncc(Cl)c(Nc4ccccc4-c4nc(C(F)(F)F)c[nH]4)n3)cc21 [Example 1010, 7-{5-Chloro-4-[2-(4-trifluoromethyl-1H-imidazol-2-yl)-phenylamino]-pyrimidin-2-ylamino}-5,5-dimethyl-1,3,4,5-tetrahydro-benzo[b]azepin-2-one] | 100 to 1000 | 1000 to 10000 | – | –
4 | COCCN1CCc2ccc(Nc3ncc(Cl)c(Nc4ccccc4-c4nc(C(F)(F)F)c[nH]4)n3)cc2CC1 [Example 1011, 5-Chloro-N*2*-[3-(2-methoxy-ethyl)-2,3,4,5-tetrahydro-1H-benzo[d]azepin-7-yl]-N*4*-[2-(4-trifluoromethyl-1H-imidazol-2-yl)-phenyl]-pyrimidine-2,4-diamine] | < 100 | 100 to 1000 | – | –
5 | O=C1CCCc2cc(Nc3ncc(Cl)c(Nc4ccccc4-c4nc(C(F)(F)F)c[nH]4)n3)ccc2N1 [Example 1012, 7-{5-Chloro-4-[2-(4-trifluoromethyl-1H-imidazol-2-yl)-phenylamino]-pyrimidin-2-ylamino}-1,3,4,5-tetrahydro-benzo[b]azepin-2-one] | 100 to 1000 | 100 to 1000 | – | –
6 | CN1C(=O)CCCc2cc(Nc3ncc(Cl)c(Nc4ccccc4-c4nc(C(F)(F)F)c[nH]4)n3)ccc21 [Example 1013, 7-{5-Chloro-4-[2-(4-trifluoromethyl-1H-imidazol-2-yl)-phenylamino]-pyrimidin-2-ylamino}-1-methyl-1,3,4,5-tetrahydro-benzo[b]azepin-2-one] | 100 to 1000 | 1000 to 10000 | – | –
7 | CC1(C)CCC(=O)Nc2ccc(Nc3ncc(Cl)c(Nc4ccc5[nH]c(C(F)(F)F)nc5c4)n3)cc21 [Example 1014, 7-[5-Chloro-4-(2-trifluoromethyl-1H-benzoimidazol-5-ylamino)-pyrimidin-2-ylamino]-5,5-dimethyl-1,3,4,5-tetrahydro-benzo[b]azepin-2-one] | – | – | < 100 | > 10000
8 | COCCN1CCc2ccc(Nc3ncc(Cl)c(Nc4ccc5[nH]c(C(F)(F)F)nc5c4)n3)cc2CC1 [Example 1015, 5-Chloro-N*2*-[3-(2-methoxy-ethyl)-2,3,4,5-tetrahydro-1H-benzo[d]azepin-7-yl]-N*4*-(2-trifluoromethyl-1H-benzoimidazol-5-yl)-pyrimidine-2,4-diamine] | – | – | 100 to 1000 | 1000 to 10000
9 | CN1C(=O)CCCc2cc(Nc3ncc(Cl)c(Nc4ccc5[nH]c(C(F)(F)F)nc5c4)n3)ccc21 [Example 1016, 7-[5-Chloro-4-(2-trifluoromethyl-1H-benzoimidazol-5-ylamino)-pyrimidin-2-ylamino]-1-methyl-1,3,4,5-tetrahydro-benzo[b]azepin-2-one] | – | – | 100 to 1000 | 1000 to 10000
10 | NC(=O)[C@@H]1[C@H](Nc2nc(Nc3ccc4c(c3)CCC(O)CC4)ncc2Cl)[C@H]2C=C[C@@H]1C2 (stereo partly drawn) [Example 1017, (1S,2S,3R,4R)-3-[5-Chloro-2-(7-hydroxy-6,7,8,9-tetrahydro-5H-benzocyclohepten-2-ylamino)-pyrimidin-4-ylamino]-bicyclo[2.2.1]hept-5-ene-2-carboxylic acid amide] | – | – | < 100 | 100 to 1000
11 | COc1cccnc1-c1ccccc1Nc1nc(Nc2ccc3c(c2)CCC(N2CCOCC2)CC3)ncc1Cl (stereo not shown) [Example 1018, 5-Chloro-N*4*-[2-(3-methoxy-pyridin-2-yl)-phenyl]-N*2*-(7-morpholin-4-yl-6,7,8,9-tetrahydro-5H-benzocyclohepten-2-yl)-pyrimidine-2,4-diamine] | – | – | < 100 | 1000 to 10000
12 | COc1cccnc1-c1ccccc1Nc1nc(Nc2ccc3c(c2)CCC(O)CC3)ncc1Cl (stereo not shown) [Example 1019, 2-{5-Chloro-4-[2-(3-methoxy-pyridin-2-yl)-phenylamino]-pyrimidin-2-ylamino}-6,7,8,9-tetrahydro-5H-benzocyclohepten-7-ol] | – | – | 100 to 1000 | 100 to 1000
13 | Cc1cccnc1-c1ccccc1Nc1nc(Nc2ccc3c(c2)CCC(N2CCOCC2)CC3)ncc1Cl (stereo not shown) [Example 1020, 5-Chloro-N*4*-[2-(3-methyl-pyridin-2-yl)-phenyl]-N*2*-(7-morpholin-4-yl-6,7,8,9-tetrahydro-5H-benzocyclohepten-2-yl)-pyrimidine-2,4-diamine] | – | – | < 100 | 1000 to 10000
14 | Cc1cccnc1-c1ccccc1Nc1nc(Nc2ccc3c(c2)CCC(O)CC3)ncc1Cl (stereo not shown) [Example 1021, 2-{5-Chloro-4-[2-(3-methyl-pyridin-2-yl)-phenylamino]-pyrimidin-2-ylamino}-6,7,8,9-tetrahydro-5H-benzocyclohepten-7-ol] | – | – | 100 to 1000 | 1000 to 10000
15 | CCCNC(=O)c1ccccc1Nc1nc(Nc2ccc3c(c2)C(C)(C)CCC(=O)N3)ncc1Cl [Example 1022, 2-[5-Chloro-2-(5,5-dimethyl-2-oxo-2,3,4,5-tetrahydro-1H-benzo[b]azepin-7-ylamino)-pyrimidin-4-ylamino]-N-propyl-benzamide] | – | – | < 100 | 100 to 1000
16 | CCCNC(=O)c1ccccc1Nc1nc(Nc2ccc3c(c2)CCN(CCOC)CC3)ncc1Cl [Example 1023, 2-{5-Chloro-2-[3-(2-methoxy-ethyl)-2,3,4,5-tetrahydro-1H-benzo[d]azepin-7-ylamino]-pyrimidin-4-ylamino}-N-propyl-benzamide] | – | – | < 100 | 100 to 1000
17 | CCCNC(=O)c1ccccc1Nc1nc(Nc2ccc3c(c2)CCCC(=O)N3)ncc1Cl [Example 1024, 2-[5-Chloro-2-(2-oxo-2,3,4,5-tetrahydro-1H-benzo[b]azepin-7-ylamino)-pyrimidin-4-ylamino]-N-propyl-benzamide] | – | – | < 100 | < 100
18 | CCCNC(=O)c1ccccc1Nc1nc(Nc2cc3c(cc2OC)CCN(CCOC)CC3)ncc1Cl [Example 1026, 2-{5-Chloro-2-[8-methoxy-3-(2-methoxy-ethyl)-2,3,4,5-tetrahydro-1H-benzo[d]azepin-7-ylamino]-pyrimidin-4-ylamino}-N-propyl-benzamide] | – | – | < 100 | > 10000
19 | CCCCNC(=O)c1ccccc1Nc1nc(Nc2ccc3c(c2)C(C)(C)CCC(=O)N3)ncc1Cl [Example 1027, N-Butyl-2-[5-chloro-2-(5,5-dimethyl-2-oxo-2,3,4,5-tetrahydro-1H-benzo[b]azepin-7-ylamino)-pyrimidin-4-ylamino]-benzamide] | – | – | < 100 | 1000 to 10000
20 | CCCCNC(=O)c1ccccc1Nc1nc(Nc2ccc3c(c2)CCN(CCOC)CC3)ncc1Cl [Example 1028, N-Butyl-2-{5-chloro-2-[3-(2-methoxy-ethyl)-2,3,4,5-tetrahydro-1H-benzo[d]azepin-7-ylamino]-pyrimidin-4-ylamino}-benzamide] | – | – | < 100 | 100 to 1000
21 | CCCCNC(=O)c1ccccc1Nc1nc(Nc2ccc3c(c2)CCCC(=O)N3)ncc1Cl [Example 1029, N-Butyl-2-[5-chloro-2-(2-oxo-2,3,4,5-tetrahydro-1H-benzo[b]azepin-7-ylamino)-pyrimidin-4-ylamino]-benzamide] | – | – | 100 to 1000 | 1000 to 10000
22 | CCCCNC(=O)c1ccccc1Nc1nc(Nc2cc3c(cc2OC)CCN(CCOC)CC3)ncc1Cl [Example 1031, N-Butyl-2-{5-chloro-2-[8-methoxy-3-(2-methoxy-ethyl)-2,3,4,5-tetrahydro-1H-benzo[d]azepin-7-ylamino]-pyrimidin-4-ylamino}-benzamide] | – | – | < 100 | > 10000
23 | CN(C)S(=O)(=O)c1ccccc1Nc1nc(Nc2ccc3c(c2)CCC(N2CCOCC2)CC3)ncc1Cl (stereo not shown) [Example 1032, 2-[5-Chloro-2-(7-morpholin-4-yl-6,7,8,9-tetrahydro-5H-benzocyclohepten-2-ylamino)-pyrimidin-4-ylamino]-N,N-dimethyl-benzenesulfonamide] | – | – | < 100 | 100 to 1000
24 | CN(C)S(=O)(=O)c1ccccc1Nc1nc(Nc2ccc3c(c2)CCC(O)CC3)ncc1Cl (stereo not shown) [Example 1033, 2-[5-Chloro-2-(7-hydroxy-6,7,8,9-tetrahydro-5H-benzocyclohepten-2-ylamino)-pyrimidin-4-ylamino]-N,N-dimethyl-benzenesulfonamide] | – | – | < 100 | 100 to 1000
25 | Clc1cnc(Nc2ccc3c(c2)CCC(N2CCOCC2)CC3)nc1Nc1ccccc1-n1cccn1 (stereo not shown) [Example 1034, 5-Chloro-N*2*-(7-morpholin-4-yl-6,7,8,9-tetrahydro-5H-benzocyclohepten-2-yl)-N*4*-(2-pyrazol-1-yl-phenyl)-pyrimidine-2,4-diamine] | – | – | < 100 | 100 to 1000
26 | OC1CCc2ccc(Nc3ncc(Cl)c(Nc4ccccc4-n4cccn4)n3)cc2CC1 (stereo not shown) [Example 1035, 2-[5-Chloro-4-(2-pyrazol-1-yl-phenylamino)-pyrimidin-2-ylamino]-6,7,8,9-tetrahydro-5H-benzocyclohepten-7-ol] | – | – | < 100 | 100 to 1000
